Key:
D(3) dopamine receptor = D(3) dopamine receptor (Homo sapiens, UniProt P35462); assay: biochemical
Description: Binding affinity determined by measuring displacement of [3H]spiperone from cloned Human Dopamine receptor D3 in CHO-K1 cells

[1] = biological target: T1, 5-hydroxytryptamine receptor 1A (Rattus norvegicus, UniProt P19327); assay: The binding affinity by measuring its ability to displace [3H]8-OH-DPAT radioligand in 5-hydroxytryptamine 1A receptor on rat hippocampal preparation; type: tissue-based, Hippocampus
T1 sequence (P19327 whole entry): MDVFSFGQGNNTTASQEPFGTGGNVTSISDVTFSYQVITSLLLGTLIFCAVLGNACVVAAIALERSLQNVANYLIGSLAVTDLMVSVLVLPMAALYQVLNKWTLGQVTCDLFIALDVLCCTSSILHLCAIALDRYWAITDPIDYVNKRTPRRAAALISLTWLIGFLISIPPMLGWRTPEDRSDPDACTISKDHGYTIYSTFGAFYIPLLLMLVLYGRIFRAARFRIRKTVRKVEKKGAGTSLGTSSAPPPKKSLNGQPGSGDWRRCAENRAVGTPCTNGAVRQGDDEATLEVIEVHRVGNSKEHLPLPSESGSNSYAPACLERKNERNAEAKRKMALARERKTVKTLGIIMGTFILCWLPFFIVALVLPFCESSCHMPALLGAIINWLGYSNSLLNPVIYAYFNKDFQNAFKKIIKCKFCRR

D(2) dopamine receptor [2] = biological target: T2, D(2) dopamine receptor (Homo sapiens, UniProt P14416); assay: biochemical
T2 sequence (P14416 whole entry): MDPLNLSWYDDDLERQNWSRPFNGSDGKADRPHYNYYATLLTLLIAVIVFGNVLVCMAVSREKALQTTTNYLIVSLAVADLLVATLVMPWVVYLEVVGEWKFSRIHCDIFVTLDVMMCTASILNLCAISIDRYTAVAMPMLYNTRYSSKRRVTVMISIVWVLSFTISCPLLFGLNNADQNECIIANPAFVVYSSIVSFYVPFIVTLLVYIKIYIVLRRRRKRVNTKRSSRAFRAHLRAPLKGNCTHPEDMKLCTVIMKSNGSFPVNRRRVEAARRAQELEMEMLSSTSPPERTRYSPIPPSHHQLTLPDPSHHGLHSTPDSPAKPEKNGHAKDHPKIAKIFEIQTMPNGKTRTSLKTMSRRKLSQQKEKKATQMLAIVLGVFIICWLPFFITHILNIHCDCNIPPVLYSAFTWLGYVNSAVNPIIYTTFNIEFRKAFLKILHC
Description: Binding affinity determined by measuring its ability to displace [3H]N-0437 radioligand in CHO-K1 cells on Cloned Human Dopamine receptor D2

[3] = biological target: 5-hydroxytryptamine receptor 1A (Rattus norvegicus) (UniProt P19327); assay: Intrinsic agonist activity at 5-HT1A receptors was measured in vivo by measuring changes in 5-HT levels after administration of compound by observing accumulation of the 5-HT […] 5-hydroxytryptophan (5-HTP) after administration of a 10 mg/k g ip
Rattus norvegicus [4] = assay: In vivo DA D2 activity determined by measuring effects on DA synthesis by observing the changes in accumulation of (DOPA) after administration of a 10 mg/kg ip; type: functional; conditions: route intraperitoneal
D(2) dopamine receptor [5] = biological target: T2, D(2) dopamine receptor; assay: The in vitro intrinsic activity was measured at DA D2 receptor by measuring its ability to increase [3H]thymidine uptake in CHO-K1 cells transfected with the Dopamine receptor D2; type: cell-based
D(2) dopamine receptor [6] = biological target: T2, D(2) dopamine receptor; assay: Percentage intrinsic activity measured at DA D2 receptor by measuring its ability to […] [3H]-thymidine uptake in CHO-K1 cells transfected with the Dopamine receptor D2; type: cell-based
Rattus norvegicus [7] = assay: In vivo DA d2 activity determined by measuring effects on DA synthesis by observing the changes in accumulation of (DOPA) after administration of a 10 mg/kg ip; type: functional; conditions: route intraperitoneal
Rattus norvegicus [8] = assay: The % decrease of rat striatal dopamine overflow at the dose of 10 mg/kg through ip.; type: functional
Rattus norvegicus [9] = assay: The % decrease of rat striatal 5-HIAA overflow at the dose of 10 mg/kg through ip.; type: functional
Rattus norvegicus [10] = assay: The inhibited exploratory locomotor activity of compound in rat after oral administration; type: functional
Mus musculus = assay: The inhibited exploratory locomotor activity of compound in mice after ip administration; type: functional
[11] = The inhibition of Sidman avoidance responding of compound in squirrel monkeys after oral administration

Sequence of D(3) dopamine receptor (P35462 whole entry): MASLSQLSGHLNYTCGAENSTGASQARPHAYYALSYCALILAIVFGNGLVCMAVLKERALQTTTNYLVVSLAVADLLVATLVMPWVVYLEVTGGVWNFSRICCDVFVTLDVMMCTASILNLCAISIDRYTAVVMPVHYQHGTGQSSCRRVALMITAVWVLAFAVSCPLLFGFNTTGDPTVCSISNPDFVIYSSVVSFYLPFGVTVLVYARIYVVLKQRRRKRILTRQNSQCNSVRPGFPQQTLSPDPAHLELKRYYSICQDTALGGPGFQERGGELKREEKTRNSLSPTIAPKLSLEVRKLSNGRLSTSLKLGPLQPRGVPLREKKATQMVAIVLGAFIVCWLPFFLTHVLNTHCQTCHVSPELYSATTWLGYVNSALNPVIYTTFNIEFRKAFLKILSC

Structure (SMILES) | Ki (D(3) dopamine receptor) [nM] | Ki [1] [nM] | Ki (D(2) dopamine receptor [2]) [nM] | other results
c1ccc(N2CCN(CC[C@H]3CC[C@H](Nc4ncnc5ccccc45)CC3)CC2)cc1 | 0.02 | 74 | 3.2 | 
c1ccc(N2CCN(C3CCC(Nc4ncccn4)CC3)CC2)cc1 (stereo in doubt; 19) | 550 | 470 | 160 | 
CN(CCc1ccccc1)CC[C@H]1CC[C@H](Nc2ncccn2)CC1 |  | 91 | 39 | 
c1ccc(N2CCN(C3CCC(Nc4ncccn4)CC3)CC2)cc1 (stereo in doubt; 20) | 610 | 83 | 320 | 
Clc1cccc(N2CCN(CC[C@H]3CC[C@H](Nc4ncccn4)CC3)CC2)c1Cl | 5 | 76 | 11 | 
O=C(N[C@H]1CC[C@H](CCN2CCN(c3ccccc3)CC2)CC1)c1cccs1 |  | 57 |  | 
COc1ccccc1N1CCN(CC[C@H]2CC[C@H](Nc3ncccn3)CC2)CC1 | 11 | 0.5 | 3 | Control [3]: 128%; Control (Rattus norvegicus [4]): 173%; IC50 (D(2) dopamine receptor [5]): 9.9 nM; Intrinsic activity (D(2) dopamine receptor [6]): 8%
COc1ccc(N2CCN(CC[C@H]3CC[C@H](Nc4ncccn4)CC3)CC2)cc1 | 52 | 160 | 390 | 
c1cnc(N[C@H]2CC[C@H](CCN3CCN(c4ccncc4)CC3)CC2)nc1 | 2300 | 730 | 4800 | 
c1cnc(N[C@H]2CC[C@H](CCN3CCN(c4nccs4)CC3)CC2)nc1 |  | 10 | 46 | 
Fc1ccc(N2CCN(CC[C@H]3CC[C@H](Nc4ncccn4)CC3)CC2)cc1 | 48 | 4.5 | 8.5 | Control [3]: 143%; IC50 (D(2) dopamine receptor [5]): 79 nM; Intrinsic activity (D(2) dopamine receptor [6]): 5%; Control (Rattus norvegicus [7]): 142%
CN(c1ncccn1)[C@H]1CC[C@H](CCN2CCN(c3ccccc3)CC2)CC1 | 24 | 4.7 | 4.8 | 
CCCN(CCC)CC[C@H]1CC[C@H](Nc2ncccn2)CC1 | 800 |  | 2400 | 
c1ccc(N2CCN(CC[C@H]3CC[C@@H](Nc4ncccn4)CC3)CC2)cc1 | 29 |  |  | 
c1cnc(N[C@H]2CC[C@H](CCN3CCN(c4cnccn4)CC3)CC2)nc1 | 210 | 29 | 180 | 
O=C(N[C@H]1CC[C@H](CCN2CCN(c3ccccc3)CC2)CC1)C1CCCCC1 |  | 5300 |  | 
c1ccc(N2CCN(C[C@H]3CC[C@H](Nc4ncccn4)CC3)CC2)cc1 | 89 | 41 | 5.7 | 
c1ccc(N2CCN(CC[C@H]3CC[C@H](Nc4ncccn4)CC3)CC2)nc1 | 26 | 2.2 |  | Intrinsic activity (D(2) dopamine receptor [6]): 41%; Control (Rattus norvegicus [7]): 159%
c1ccc(N2CCN(CC[C@H]3CC[C@H](Nc4ncccn4)CC3)CC2)cc1 | 13.7 | 3.5 | 5.2 | Decrease (Rattus norvegicus [8]): 50%; Control (Rattus norvegicus [4]): 67%; EC50 (D(2) dopamine receptor [5]): 29 nM; Intrinsic activity (D(2) dopamine receptor [6]): 60%; Decrease (Rattus norvegicus [9]): 42%; ED50 (Rattus norvegicus [10]): 4.6 mg/kg; ED50 (Mus musculus): 0.4 mg/kg; ED50 [11]: 0.28 mg/kg
c1cnc(N[C@H]2CC[C@H](CCN3CCc4ccccc4C3)CC2)nc1 | 40 | 44 | 110 | 
c1ccc(N2CCN(CCC[C@H]3CC[C@H](Nc4ncccn4)CC3)CC2)cc1 | 54 | 16 | 7.4 | 
FC(F)(F)c1cccc(N2CCN(CC[C@H]3CC[C@H](Nc4ncccn4)CC3)CC2)c1 | 32 | 13 | 6 | 
c1cnc(N[C@H]2CC[C@H](CCN3CCN(c4ncccn4)CC3)CC2)nc1 | 590 | 8.6 | 240 | 
c1cnc(N[C@H]2CC[C@H](CCN3CCN(c4cccnc4)CC3)CC2)nc1 | 4.7 | 9.5 | 25 | 
C1=C(c2ccccc2)CCN(CC[C@H]2CC[C@H](Nc3ncccn3)CC2)C1 | 3.7 | 3.9 | 4.7 | 
